Measured values: article PMC10857906, “PROTAC-mediated NR4A1 degradation as a novel strategy for cancer immunotherapy” (The Journal of Experimental Medicine, 2024)

Legend:
[1] = system: B16F10 melanoma; test: B16F10 melanoma syngeneic tumor model; type: in vivo, mouse; conditions: B16F10 in WT mice, 1.8 mg/kg NR-V04 or 0.75 mg/kg celastrol i.p. twice a week from day 7
Source text: (§1) 7–9-wk-old C57BL/6J, B6.129S2-Ighm^tm1Cgn/J (002288), B6.129S2-Nr4a1^tm1Jmi/J (NR4A1^−/−, 006187), and NOD-SCID interleukin-2 receptor gamma null (NSG) mice were purchased from Jackson Laboratories. For all studies involving NR-V04 and celastrol, the compounds were formulated in 50% phosal PG, 45% miglyol 810N, and 5% polysorbate 80 and administered via i.p. injection.
(§2) For syngeneic tumor models, 5 × 10^5 cells MC38, Yumm1.7, and Yummer1.7, 1 × 10^5 cells of B16F10 were resuspended in PBS and implanted into 7–9-wk-old mice subcutaneously. For the tumor inhibition experiment, mice were treated with 1.8 mg/kg NR-V04 or 0.75 mg/kg celastrol by i.p. injection twice weekly. For the immune profile experiment, once tumors reached 0.5 cm in diameter, mice were treated with 1.8 mg/kg NR-V04 by i.p. injection twice weekly. For the toxicity experiment, male and female non-tumor-bearing mice were treated with 2 mg/kg NR-V04 for two doses in the first week and 5 mg/kg for another two doses in the second week. Blood samples were taken from the submandibular (facial) vein before each treatment and 42 days later for hematological analysis, and body weight was measured twice per week up to day 42. Mice were euthanized in accordance with the IACUC protocol once the largest tumors reached 2 cm in diameter, and tissues were collected for further analysis.

[2] = biological target: NR4A1; conditions: ref Hu et al., 2017; read-out: binding affinity of celastrol to NR4A1 (Kd); cited from earlier work
[3] = biological target: NR4A1 and VHL (Homo sapiens, UniProt P22736+P40337); test: Proximity ligation assay (PLA) for the NR4A1-VHL ternary complex; type: cell-based; parameters: endogenous in cells; host or cells: CHL-1 and A375 human melanoma cells; conditions: CHL-1 and A375 cells, 500 nM, 16 h, 0.5 μM MG132 pretreatment
Method: 5 × 10^4 CHL-1 and A375 cells were cultured in Nunc Lab-Tek Chamber Slide (177402; Thermo Fisher Scientific). The cells were treated with DMSO, 500 nM celastrol, and 500 nM NR-V04 for 16 h with MG132 inhibitor. The PLA was conducted with Duolink In Situ Red Starter Kit Mouse/Rabbit (DUO92101; Sigma-Aldrich) following the standard protocol. Additionally, a non-stain cell group was included as a negative control to account for background signal during PLA assay. The signal was detected using a confocal microscope (LSM 710; Zeiss). Primary antibody: NR4A1 (HPA059742, 2 μg/ml, isotype-rabbit; Sigma-Aldrich) and VHL (MA5-13940, 2 μg/ml, isotype-mouse; Thermo Fisher Scientific).

[4] = system: MC38 tumors; test: MC38 colon cancer syngeneic tumor model; type: in vivo, mouse; conditions: MC38 in WT mice, 1.8 mg/kg NR-V04 or 0.75 mg/kg celastrol i.p. twice a week from day 7
Source text: as §1, §2

[5] = biological target: T1, NR4A1 (Homo sapiens, UniProt P22736); test: NR4A1 degradation in CHL-1 human melanoma cells (immunoblotting); type: cell-based; conditions: CHL-1 cells, 16 h
T1 construct: NR-V04 effectively promoted the degradation of NR4A1 in two human melanoma cell lines within 16 h; endogenous in cells; host or cells: CHL-1, A375, WM164, M229 human melanoma cells
Method: Human melanoma cell lines: A375 and CHL-1 (gifts from Dr. D. Zhou, the University of Texas Health Science Center, San Antonio, TX, USA) were cultured in Dulbecco’s Modified Eagles’ Medium (DMEM, D5796; Sigma-Aldrich), WM164 and M229 (gifts from Dr. K.S.M. Smalley’s lab) were cultured in RPMI-1640 (R8758; Sigma-Aldrich). Mouse melanoma cell lines: B16F10 (CRL-6475, ATCC) was cultured in DMEM, SW1 and SM1 (gift from Dr. K.S.M. Smalley, Moffitt Cancer Center, Tampa, FL, USA) were cultured in RPMI. Human epithelial kidney cell lines: HEK293T (293T, CRL-3216; ATCC) and Vhl-KO-293T (gift from Dr. D. Zhou, the University of Texas Health Science Center, San Antonio, TX, USA) were cultured in DMEM. Mouse colon cancer cell lines: MC38 (ENH204-FP; Kerafast Inc.) was cultured in DMEM supplemented with 1 mM glutamine, […] non-essential amino acids (11140050; Thermo Fisher Scientific), 1 mM sodium pyruvate (11360070; Thermo Fisher Scientific), and 10 mM HEPES (15630080; Thermo Fisher Scientific). All cell culturing media were supplemented with 10% fetal bovine serum (FBS, F2442; Sigma-Aldrich), 100 U/ml penicillin, and 100 µg/ml streptomycin (P4333; Sigma-Aldrich).
Samples were lysed using radioimmunoprecipitation assay buffer (RIPA) lysis buffer (150 mM NaCl, 5 mM EDTA, 50 mM Tris pH 8.0, 0.5% sodium deoxycholate, 1% NP-40, 0.1% SDS) supplemented with 1 mM dithiothreitol and protease inhibitors. The lysates were separated by SDS-PAGE and analyzed using standard western blotting procedures ([Khan et al., 2019]). Antibodies: human NR4A1 (ab153914, 1:1,000; Abcam), mouse NR4A1 (14-5965-82, 1:1,000; Invitrogen), NR4A2 (AV38753, 1:1,000; Sigma-Aldrich), NR4A3 (TA804893, 1: 1,000; Thermo Fisher Scientific), VHL (68547, 1:1,000; Cell Signaling), β-actin (13E5, 1:5,000; Cell Signaling), β-tubulin (9F3, 1: 5,000; Cell Signaling), and GAPDH (D16H11, 1: 5,000; Cell Signaling) were employed for protein detection.

[6] = system: NR4A1 mRNA; test: NR4A1 mRNA by qPCR in CHL-1 cells; type: cell-based, human; conditions: 500 nM, ACTB as control
Method: Total RNA was extracted from cells using RNeasy Kits (74004; QIAGEN) following the manufacturer’s instructions. cDNA synthesis was performed using SuperScript III Reverse Transcriptase (18080044; Thermo Fisher Scientific) with 100 ng RNA as the template. Amplification of cDNA was carried out using 2× PowerUP SYBR Green Master Mix (A25778; Thermo Fisher Scientific). Each reaction was conducted in triplicates and results were normalized to the expression of a housekeeping gene. Primer (Eurofins): human β-actin (forward sequence: 5′-CACCATTGGCAATGAGCGGTTC-3′; reverse sequence: 5′-AGGTCTTTGCGGATGTCCACGT-3′) and human NR4A1 (forward sequence: 5′-GGACAACGCTTCATGCCAGCAT-3′; reverse sequence: 5′-CCTTGTTAGCCAGGCAGATGTAC-3′).

T1 sequence (P22736 whole entry): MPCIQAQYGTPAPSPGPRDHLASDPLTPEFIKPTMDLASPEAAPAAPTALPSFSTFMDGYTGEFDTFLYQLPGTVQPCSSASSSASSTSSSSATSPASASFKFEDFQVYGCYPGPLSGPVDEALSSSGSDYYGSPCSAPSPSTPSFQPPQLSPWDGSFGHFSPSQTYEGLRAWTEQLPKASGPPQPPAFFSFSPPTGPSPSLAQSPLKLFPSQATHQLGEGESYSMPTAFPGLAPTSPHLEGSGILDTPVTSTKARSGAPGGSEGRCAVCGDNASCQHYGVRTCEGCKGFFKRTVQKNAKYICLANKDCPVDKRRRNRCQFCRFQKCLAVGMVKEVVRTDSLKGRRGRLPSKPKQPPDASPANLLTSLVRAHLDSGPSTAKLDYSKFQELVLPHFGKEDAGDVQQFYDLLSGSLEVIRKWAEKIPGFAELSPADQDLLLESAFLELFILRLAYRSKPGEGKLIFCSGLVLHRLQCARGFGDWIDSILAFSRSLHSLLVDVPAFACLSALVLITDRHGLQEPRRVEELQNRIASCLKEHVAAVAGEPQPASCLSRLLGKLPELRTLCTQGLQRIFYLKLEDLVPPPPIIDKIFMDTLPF
Chain of NR4A1 and VHL (P22736 whole entry): as above
Chain of NR4A1 and VHL (P40337 whole entry): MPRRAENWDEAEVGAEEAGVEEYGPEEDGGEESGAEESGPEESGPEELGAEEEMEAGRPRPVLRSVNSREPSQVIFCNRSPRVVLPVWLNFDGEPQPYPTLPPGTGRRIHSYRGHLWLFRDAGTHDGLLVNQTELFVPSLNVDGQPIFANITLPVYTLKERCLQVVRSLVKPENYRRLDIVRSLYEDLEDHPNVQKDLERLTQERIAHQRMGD
Chain of NR4A1 and VHL (Q15369 whole entry partner): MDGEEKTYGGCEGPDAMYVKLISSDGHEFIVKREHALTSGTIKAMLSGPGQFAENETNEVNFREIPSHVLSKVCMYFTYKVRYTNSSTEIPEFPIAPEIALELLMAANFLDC
Chain of NR4A1 and VHL (Q15370 whole entry partner): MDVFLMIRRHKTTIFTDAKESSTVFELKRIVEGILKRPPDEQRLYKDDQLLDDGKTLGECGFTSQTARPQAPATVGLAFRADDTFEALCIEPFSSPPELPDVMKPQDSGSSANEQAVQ

CC1=C(O)C(=O)C=C2C1=CC=C1[C@@]2(C)CC[C@@]2(C)[C@@H]3C[C@](C)(C(=O)O)CC[C@]3(C)CC[C@]12C [celastrol, reference compound]
tumor growth [1]: increased growth of B16F10 tumors
Kd [2]: 0.29 µM
PLA signals (ternary complex formation NR4A1-VHL) [3]: did not
tumor growth [4]: failure to inhibit tumor growth of MC38 tumors
NR4A1 protein level, initial screening ([5]; 250 nM, immunoblotting and densitometry): did not alter the protein level of NR4A1
NR4A1 protein level, dose response [5]: did not change NR4A1 protein level
NR4A1 mRNA level [6]: increase in NR4A1 mRNA levels after 2 h
